Blank lines part the entries; values can stand above or below the compound they belong to.
Key:
GST-RANKL = target: T1, GST-RANKL (Mus musculus, UniProt O35235); assay: Ex vivo RANKL-induced osteoclast formation (BM cells, M-CSF + GST-RANKL, TRAP staining); type: cell-based; details: BM cells, 25 ng/ml M-CSF, 80 ng/ml GST-RANKL
T1 construct: a cDNA encoding the core ectodomain of murine RANKL residues 158-316, with or without the G278R substitution; made in house; host or cells: Escherichia coli BL21
T1 sequence (O35235 158-316): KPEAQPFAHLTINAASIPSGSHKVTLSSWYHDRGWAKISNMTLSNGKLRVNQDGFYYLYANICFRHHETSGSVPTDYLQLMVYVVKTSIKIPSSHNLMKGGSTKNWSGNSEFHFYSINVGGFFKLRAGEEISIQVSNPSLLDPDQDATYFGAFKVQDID
Method: Instead, WT GST-RANKL (ratio 1:0) induced formation of TRAP+ giant osteoclasts (FIGS. 5A-5C). […] Incubation of WT GST-RANKL with GST at similar concentrations (12.5-100 ng/ml), didn't affect the formation of osteoclasts.
A novel small molecule inhibitor of TNF trimerization, named SPD304, has been recently reported^[35] to interact with glycine 122 (G122) that corresponds to G278 in RANKL.
BM cells were collected after flushing out of femurs and tibiae, subjected to gradient purification using FICOLL-PAQUE™ (GE Healthcare), plated in 24-well plates at a density of 5×10^5 cells per well and cultured in αMEM medium (GIBCO) containing 10% fetal bovine serum supplemented with 40 ng/ml RANKL (R&D Systems) and 25 ng/ml M-CSF (R&D Systems) for 5 days. Similarly, splenocytes were collected, plated in 24-well plates at a density of 10^6 cells per well and cultured in the presence of recombinant RANKL and M-CSF for 6 days. GST-RANKL^G278R was pre-incubated with WT GST-RANKL at room temperature for 20 min, prior to the stimulation of the BM cell cultures, in order to enable exchange of the RANKL variants and heterotrimer formation. Small molecule SPD304 (Sigma-Aldrich) was pre-incubated with 80 ng/ml GST-RANKL at various concentrations from 0.25 to 2 μM in αMEM medium for 1 hour at room temperature and then added to culture. Osteoclasts were stained for TRAP activity.

human RANKL = target: T2, human RANKL (Homo sapiens, UniProt O14788); assay: RANKL-mediated osteoclastogenesis assay with human RANKL; type: cell-based
T2 construct: purchased Peprotech
T2 sequence (O14788 143-317 limits assumed): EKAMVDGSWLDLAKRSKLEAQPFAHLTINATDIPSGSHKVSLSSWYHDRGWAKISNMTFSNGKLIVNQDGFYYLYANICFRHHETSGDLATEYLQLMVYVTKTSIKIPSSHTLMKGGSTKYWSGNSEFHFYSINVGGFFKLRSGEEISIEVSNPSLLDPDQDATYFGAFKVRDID
Excerpt: However, SPD304 contains a potentially toxic 3-substituted indole moiety that produces reactive intermediates that possibly cause toxicities by covalently binding to nucleophilic residues of protein and/or DNA. […] These small molecules have been also tested as regards their effect on cell toxicity (FIG. 14C).
BM cells were collected after flushing out of femurs and tibiae, subjected to gradient purification using FICOLL-PAQUE™ (GE Healthcare), plated in 96-well plates at a density of 6×10^4 cells per well and cultured in αMEM medium (GIBCO) containing 10% fetal bovine serum supplemented with 50 ng/ml human RANKL (Peprotech) and 25 ng/ml M-CSF (R&D Systems) for 5 days. […] Osteoclasts were stained for TRAP activity (Sigma).

soluble mouse RANKL = target: T3, soluble mouse RANKL (Mus musculus, UniProt O35235); assay: Soluble mouse RANKL preincubated with SPD304: native gel and DSS cross-linking; type: biochemical
T3 construct: a cDNA encoding the core ectodomain of murine RANKL residues 158-316, with or without the G278R substitution; GST (N, cleaved yes); made in house; host or cells: Escherichia coli BL21
T3 sequence (O35235 158-316): T1 sequence (O35235 158-316)
Method: FIG. 13. Effect of SDP304 on RANKL structure. (Panel A) RANKL dimer with SPD304 located on optimum binding position. G278 is shown with space-filled atoms and SPD304 with doted surface. Cyan and green ribbons represent the two RANKL monomers. Diagram created using PYMOL v1.3. (Panel B) Recombinant WT soluble mouse RANKL (60 ng) was preincubated for 1 hour at 37° C. either with SPD304 at various concentrations from 6-200 μM or without SPD304 (−), resolved on native gel and detected by Western blotting using a polyclonal antibody against RANKL. (Panel C) Recombinant soluble mouse RANKL was preincubated with SPD304 at increasing concentrations from 6-100 μM, was cross-linked with DSS, run on 12% SDS-PAGE and detected by Western blot using an anti-RANKL polyclonal antibody. A representative figure of three independent experiments is shown for Western blots.
Experimental evidence on the TNF analogue and in silico binding studies on mouse RANKL confirm that the optimal binding position of SPD304, causing trimer inhibition, is located very close (<4 Å) to the G278 mutation position in the structure (FIG. 13, Panel A). To experimentally confirm the interference of the SPD304 with the RANKL structure, soluble mouse RANKL was preincubated with increasing concentrations of SPD304 (6-200 μM) and analyzed in native gels showing the natural conformation of RANKL protein (FIG. 13, Panel B). […]

[1] = MTT survival assay in osteoclast precursors; type: cell-based; details: M-CSF, 1-20 μM, 2 days, read-out: IC50 in MTT survival assay (cell toxicity)
Method: (§1) However, SPD304 contains a potentially toxic 3-substituted indole moiety that produces reactive intermediates that possibly cause toxicities by covalently binding to nucleophilic residues of protein and/or DNA. […] Therefore, we investigated the potential of testing SPD304 derivatives designed to be less toxic with higher specificity for human RANKL. […] These small molecules have been also tested as regards their effect on cell toxicity (FIG. 14C).
(§2) Bone marrow (BM) cells were plated in 96-well plates at a density of 10^5 cells per well after gradient purification using FICOLL-PAQUE™ (GE Healthcare). BM cells were cultured in αMEM medium (GIBCO) containing 10% fetal bovine serum supplemented with 25 ng/ml M-CSF (R&D Systems) in the presence of the tested compounds at concentrations from 1-20 μM for 2 days (0.1% DMSO). Serum free a-MEM medium containing 0.5 mg/ml MTT [3-(4,5-Dimethylthiazol-2-yl)-2,5-diphenyltetrazolium bromide] was added for 2 hours in a 37° C. CO2 incubator. After removal of the MTT solution, DMSO was added to extract the dye from the cells and cell viability was accessed at 550 nm.

osteoclast precursors = assay: MTT survival assay in osteoclast precursors; type: cell-based
Method: as §1, §2

TNF = TNF (Homo sapiens, UniProt P01375); details: cited from earlier work
Sequence of TNF (P01375 77-233 limits assumed): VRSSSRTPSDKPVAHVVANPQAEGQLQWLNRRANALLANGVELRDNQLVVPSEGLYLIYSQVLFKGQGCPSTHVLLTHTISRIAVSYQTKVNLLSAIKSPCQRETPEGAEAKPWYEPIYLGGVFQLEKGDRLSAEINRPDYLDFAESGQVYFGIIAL

BAFFR-Fc = assay: BAFF/BAFF receptor ELISA; type: binding; details: serial dilutions of human BAFFR-Fc
Excerpt: (§3) Glycine at codon 278 of mouse RANKL is highly conserved among various members of the TNF superfamily. In order to investigate whether this glycine to arginine substitution is also critical for trimerization in other TNF superfamily members, we reproduced this mutation in human BAFF (BAFF^G249R), a cytokine that activates B lymphocytes. Thus, we produced recombinant GST-BAFF in E coli and subsequently the soluble BAFF was released from GST by proteolytic cleavage. […] To examine whether soluble BAFF^G249R binds to BAFF receptor (BAFFR), serial dilutions of human BAFFR-Fc were incubated with immobilized soluble BAFF or BAFF^G249R (FIG. 21B). […] Thus, substitution of this conserved glycine abrogates trimerization not only in RANKL but also in other TNF superfamily members such as TNF, BAFF and possibly in many more.
Nunc plates were coated with 3 μg/ml recombinant soluble human BAFF or BAFF^G249R and incubated with increasing amount of recombinant human BAFFR-Fc (R&D Systems). BAFFR binding was detected with a horseradish peroxidase (HRP) conjugated goat anti-human IgG (Fc) (SouthernBiotech, Birmingham, USA) using o-phenylenediamine (OPD) substrate (Thermo Scientific Pierce) that was measured at 490 nm.

BAFF = target: T4, BAFF (Homo sapiens, UniProt Q9Y275); assay: BAFF cross-linking and Western (trimer formation); type: biochemical; details: DSS cross-linking
T4 construct: a cDNA encoding the core ectodomain of human BAFF residues 134-285 (17.5 kD), with or without the G249R substitution; GST (N, cleaved yes); made in house; host or cells: E. coli BL21
Excerpt: as §3
The chemical cross-linking reagent disuccinimidyl suberate (DSS, Sigma) was used to examine the trimeric property of BAFF as previously described (Douni et al., 2012). Various amounts of BAFF proteins in PBS buffer (pH 7.5) were mixed with 1 mM DSS (the molar ratio of DSS is 10:1). The cross-linking reactions were carried out for 1 hour at room temperature and terminated with 50 mM Tris (pH 7.5) for 30 minutes. Proteins from reaction mixtures were separated on 12% SDS-PAGE and proceeded in Western blot using a polyclonal anti-BAFF antibody (PeproTech).

[2] = target: T5, binding of human RANKL to its receptor RANK (Homo sapiens, UniProt O14788); assay: RANKL/RANK ELISA; details: peptides 3-100 μM, dose dependent
T5 construct: a cDNA encoding the core ectodomain of human RANKL residues 143-317 (20 kD), was cloned into pGEX-6P-1; GST (N, cleaved yes); host or cells: Escherichia coli BL21 (RANKL)
T5 sequence (O14788 143-317): T2 sequence (O14788 143-317 limits assumed)
Method: Nunc plates were coated with 100 μl of 250 ng/ml recombinant soluble human RANK-Fc (R&D Systems) overnight. Recombinant soluble human RANKL at 200 ng/ml was pre-incubated with increasing amounts of peptides (3-100 μM) for 1 hour at 37° C. and was added in the RANK-coated wells. RANKL binding was detected with a polyclonal goat anti-RANKL antibody (R&D Systems), followed by a horseradish peroxidase (HRP) conjugated horse anti-goat IgG (Vector) using o-phenylenediamine (OPD) substrate (Thermo Scientific Pierce) that was measured at 490 nm.

formation of multinuclear TRAP+ osteoclasts (GST-RANKL; SPD304 at 2 μM): completely inhibited
Compound: Cc1cc2occ(CN(C)CCN(C)Cc3cn(-c4cccc(C(F)(F)F)c4)c4ccccc34)c(=O)c2cc1C [SPD304, 6,7-Dimethyl-3-[[methyl[2-[methyl[[1-[3-(trifluoromethyl)phenyl]-1H-indol-3-yl]methyl]amino]ethyl]amino]methyl]-(4H-1-Benzopyran-4-one)]
formation of TRAP+ multinucleated osteoclasts (GST-RANKL; SPD304 at 1 μM): attenuated both the number and the size of TRAP+ multinucleated cells
inhibition of human RANKL function in osteoclastogenesis (human RANKL; 2 μM): effective in inhibiting human RANKL function
RANKL forms after chemical cross-linking (soluble mouse RANKL; SPD304 6-100 μM, DSS): dramatic increase of RANKL dimers and monomers
RANKL conformation in native gel (soluble mouse RANKL; SPD304 6-200 μM, 1 hour at 37° C.): a second band of lower molecular weight was also evident
IC50 at 2 days [1]: 3.4 µM
toxic concentrations in MTT survival assay (osteoclast precursors): above 5 μM
inhibition of TNF trimerization and function (TNF): effectively inhibits TNF trimerization and function

binding to BAFF receptor (BAFFR-Fc): cannot bind to its receptor
BAFF trimer assembly (BAFF): failure of spontaneous trimer assembly
Compound: BAFF^G249R: soluble human BAFF residues 134-285 with the G249R substitution

Compound: HFYSINVGRFFK (RANKL fragment) [peptide 2]
inhibition of binding of human RANKL to RANK [2]: inhibit the binding of human RANKL to its receptor RANK
inhibition of RANKL function in RANKL-dependent osteoclastogenesis assays (human RANKL; peptides at 50 μM (FIG. 16A)): inhibited the function of RANKL
